Laboratory results from ChEMBL document CHEMBL1153666, “K-13 and of4949: Evaluation of key partial structures and pharmacophore delineation” (Bioorg Med Chem Lett, 1993).
pKi: −log10 of the molar value. Calls of active or inactive are those of the source. The rule behind the calls is not given here.

Legend:
[1] = target: T1, Angiotensin-converting enzyme (Oryctolagus cuniculus) (UniProt P12822); assay: Inhibition of Angiotensin I converting enzyme from rabbit lung acetone powder extract; Inactive
T1 sequence (whole entry): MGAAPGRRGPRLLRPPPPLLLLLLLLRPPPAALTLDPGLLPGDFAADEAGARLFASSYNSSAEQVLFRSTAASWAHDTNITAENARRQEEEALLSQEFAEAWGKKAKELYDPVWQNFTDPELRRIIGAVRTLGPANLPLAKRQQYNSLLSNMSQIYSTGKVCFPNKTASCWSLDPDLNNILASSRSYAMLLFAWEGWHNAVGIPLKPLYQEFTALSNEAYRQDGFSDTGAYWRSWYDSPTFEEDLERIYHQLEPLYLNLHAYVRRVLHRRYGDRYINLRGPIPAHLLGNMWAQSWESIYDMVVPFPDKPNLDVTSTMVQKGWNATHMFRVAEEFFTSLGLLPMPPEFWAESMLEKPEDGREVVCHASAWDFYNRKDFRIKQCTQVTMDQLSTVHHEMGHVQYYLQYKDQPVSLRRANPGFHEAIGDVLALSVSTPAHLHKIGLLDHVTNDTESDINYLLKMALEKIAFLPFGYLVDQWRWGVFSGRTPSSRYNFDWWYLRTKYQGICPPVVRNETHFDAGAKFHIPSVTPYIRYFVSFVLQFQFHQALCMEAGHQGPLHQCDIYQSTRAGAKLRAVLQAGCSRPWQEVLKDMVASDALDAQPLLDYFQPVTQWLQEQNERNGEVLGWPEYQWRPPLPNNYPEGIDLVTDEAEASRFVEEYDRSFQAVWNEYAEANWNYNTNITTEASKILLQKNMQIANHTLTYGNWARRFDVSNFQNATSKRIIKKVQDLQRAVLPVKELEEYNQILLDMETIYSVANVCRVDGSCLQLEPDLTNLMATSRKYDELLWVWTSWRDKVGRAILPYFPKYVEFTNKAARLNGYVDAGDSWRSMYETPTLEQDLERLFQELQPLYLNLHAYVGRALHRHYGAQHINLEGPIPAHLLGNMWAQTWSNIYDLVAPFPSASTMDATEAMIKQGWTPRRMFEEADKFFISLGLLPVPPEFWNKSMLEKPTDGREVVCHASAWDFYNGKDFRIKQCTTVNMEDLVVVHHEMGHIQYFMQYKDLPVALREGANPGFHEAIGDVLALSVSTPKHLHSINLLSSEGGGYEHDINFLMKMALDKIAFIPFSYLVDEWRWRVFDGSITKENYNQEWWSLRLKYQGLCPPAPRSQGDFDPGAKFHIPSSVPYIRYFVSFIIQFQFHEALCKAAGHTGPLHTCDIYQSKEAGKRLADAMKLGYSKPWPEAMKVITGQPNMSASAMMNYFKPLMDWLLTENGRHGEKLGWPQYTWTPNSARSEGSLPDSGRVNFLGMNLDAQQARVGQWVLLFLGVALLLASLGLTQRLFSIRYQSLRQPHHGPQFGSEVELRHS

[2] = target: T2, Angiotensin-converting enzyme (Oryctolagus cuniculus, UniProt P12822); assay: Tested for inhibitory concentration that causes inhibition of Angiotensin I converting enzyme obtained from rabbit lung acetone powder extract); conditions: read-out: I50 (converted)
T2 sequence (P12822 whole entry): T1 sequence (whole entry)

[3] = target: T2, Angiotensin-converting enzyme; assay: Tested for inhibitory constant against Angiotensin I converting enzyme
[4] = target: T3, Aminopeptidase B (Rattus norvegicus) (UniProt O09175); assay: Percent inhibition of rat liver aminopeptidase B by 230 ug/mL was determined
T3 sequence (whole entry): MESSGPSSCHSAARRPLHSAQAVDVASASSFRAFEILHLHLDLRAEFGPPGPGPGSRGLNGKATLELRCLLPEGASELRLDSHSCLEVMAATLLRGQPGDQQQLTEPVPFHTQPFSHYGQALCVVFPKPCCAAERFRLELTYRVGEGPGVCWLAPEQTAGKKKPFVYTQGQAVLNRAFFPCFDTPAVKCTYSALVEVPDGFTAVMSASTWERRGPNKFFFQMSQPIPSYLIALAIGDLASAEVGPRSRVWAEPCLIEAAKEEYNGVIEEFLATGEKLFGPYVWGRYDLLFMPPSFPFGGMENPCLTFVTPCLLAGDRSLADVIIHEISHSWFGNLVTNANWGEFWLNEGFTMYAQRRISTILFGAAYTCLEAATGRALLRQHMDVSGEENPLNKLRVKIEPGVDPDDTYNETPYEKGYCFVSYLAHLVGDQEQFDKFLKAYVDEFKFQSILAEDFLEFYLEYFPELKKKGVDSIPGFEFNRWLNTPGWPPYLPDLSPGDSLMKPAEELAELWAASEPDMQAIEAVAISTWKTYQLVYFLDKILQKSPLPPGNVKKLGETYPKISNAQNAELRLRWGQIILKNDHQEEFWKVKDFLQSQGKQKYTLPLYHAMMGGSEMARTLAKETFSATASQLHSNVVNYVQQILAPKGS

P388 [5] = assay: Tested in vitro for concentration that causes 50% inhibition of P388 leukemic cell growth; assay type: functional, cell-based; conditions: Mus musculus
[6] = target: T3, Aminopeptidase B (Rattus norvegicus); assay: Tested for percent inhibitory concentration that cause inhibition of rat liver aminopeptidase B at 220 ug/mL
[7] = target: T2, Angiotensin-converting enzyme; assay: Inhibitory concentration against Angiotensin I converting enzyme obtained from rabbit lung acetone powder extract; conditions: read-out: I50 (converted)
[8] = target: T1, Angiotensin-converting enzyme (Oryctolagus cuniculus); assay: Tested for inhibitory concentration that causes inhibition of Angiotensin I converting enzyme obtained from rabbit lung acetone powder extract; conditions: concentration not given here
P388 [9] = assay: Tested for concentration that causes 50% inhibition of P388 leukemic cell growth, was determined in vitro; assay type: functional, cell-based; conditions: Mus musculus
Aminopeptidase B [10] = target: T4, Aminopeptidase B (Rattus norvegicus, UniProt O09175); assay: Tested for concentration that causes 50% inhibition of rat liver aminopeptidase B, was determined; Inactive
T4 sequence (O09175 whole entry): T3 sequence (whole entry)

[11] = target: T1, Angiotensin-converting enzyme (Oryctolagus cuniculus); assay: Tested for percent inhibitory concentration that cause inhibition of Angiotensin I converting enzyme obtained from rabbit lung acetone powder extract at 200 ug/mL
Aminopeptidase B [12] = target: T4, Aminopeptidase B; assay: Tested for concentration that causes 50% inhibition of rat liver aminopeptidase B, was determined; conditions: read-out: I50 (converted)
[13] = target: T1, Angiotensin-converting enzyme (Oryctolagus cuniculus); assay: Tested for percent inhibitory concentration that cause inhibition of Angiotensin I converting enzyme obtained from rabbit lung acetone powder extract at 100 ug/mL

| SMILES | inhibition [1] | IC50 [7] [µM] | further results |
| --- | --- | --- | --- |
| COC(=O)[C@H](Cc1ccc(O)c(Oc2ccc(C[C@H](NC(=O)[C@H](CC(N)=O)NC(=O)OC(C)(C)C)C(=O)OC)cc2)c1)NC(=O)OCc1ccccc1 | inactive |  |  |
| COC(=O)CCc1ccc(O)c(Oc2ccc(CCNC(=O)[C@H](CC(N)=O)NC(=O)OC(C)(C)C)cc2)c1 | inactive |  |  |
| CC(=O)N[C@@H]1Cc2ccc(cc2)Oc2cc(ccc2O)C[C@H](C(=O)O)NC(=O)[C@H](Cc2ccc(O)cc2)NC1=O |  |  | IC50 [2]: 0.183 µM; pKi [3]: 6.46; inhibition [4]: 13%; IC50 (P388 [5]): > 10 µg/mL |
| COC(=O)CCc1cccc(Oc2ccc(CCNC(=O)CNC(=O)OC(C)(C)C)cc2)c1 | inactive |  |  |
| COC(=O)[C@@H]1Cc2ccc(cc2)Oc2cc(ccc2OCc2ccccc2)C[C@H](NC(=O)OCc2ccccc2)C(=O)N[C@@H](CC(N)=O)C(=O)N1 |  |  | inhibition [6]: 14% |
| COC(=O)[C@@H]1Cc2ccc(cc2)Oc2cc(ccc2O)C[C@H](N)C(=O)N[C@@H](CC(N)=O)C(=O)N1 |  | 42.5 |  |
| COc1ccc2cc1Oc1ccc(cc1)CCNC(=O)[C@H](CC(N)=O)NC(=O)CC2 |  | 535 |  |
| NC(=O)C[C@@H]1NC(=O)CCc2cccc(c2)Oc2ccc(cc2)CCNC1=O | inactive |  |  |
| O=C1CCc2ccc(cc2)Oc2cccc(c2)CCNC(=O)[C@H](Cc2ccc(O)cc2)N1 |  |  | inhibition [8]: 10% |
| COc1ccc2cc1Oc1ccc(cc1)C[C@@H](C(=O)O)NC(=O)[C@H](CC(N)=O)NC(=O)[C@@H](NC(=O)OCc1ccccc1)C2 |  | 182 |  |
| COC(=O)CCc1ccc(OC)c(Oc2ccc(CCNC(=O)[C@H](CC(N)=O)NC(=O)OC(C)(C)C)cc2)c1 | inactive |  |  |
| COc1ccc2cc1Oc1ccc(cc1)C[C@H](NC(C)=O)C(=O)N[C@@H](Cc1ccc(O)cc1)C(=O)N[C@H](C(=O)O)C2 |  | 5.34 |  |
| COc1ccc2cc1Oc1ccc(cc1)C[C@@H](C(=O)O)NC(=O)[C@H](CC(N)=O)NC(=O)[C@@H](N)C2 |  | 149 | IC50 (P388 [9]): > 10 µg/mL |
| CC(C)(C)OC(=O)N[C@@H](Cc1ccc(Oc2cc(C[C@H](NC(=O)OCc3ccccc3)C(=O)O)ccc2OCc2ccccc2)cc1)C(=O)N[C@H](Cc1ccc(O)cc1)C(=O)O | inactive |  |  |
| COC(=O)[C@@H]1Cc2ccc(cc2)Oc2cc(ccc2OC)C[C@H](NC(=O)OCc2ccccc2)C(=O)N[C@@H](CC(N)=O)C(=O)N1 |  | 210 |  |
| COC(=O)[C@H]1Cc2ccc(O)c(c2)Oc2ccc(cc2)C[C@H](NC(C)=O)C(=O)N[C@@H](Cc2ccc(O)cc2)C(=O)N1 |  | 0.89 |  |
| O=C1CCc2ccc(cc2)Oc2cc(ccc2O)CCNC(=O)[C@H](Cc2ccc(O)cc2)N1 |  | 11.2 |  |
| COC(=O)CCc1cccc(Oc2ccc(CCNC(=O)[C@H](CC(N)=O)NC(=O)OC(C)(C)C)cc2)c1 | inactive |  |  |
| N[C@@H](Cc1ccc(Oc2cc(C[C@H](N)C(=O)O)ccc2O)cc1)C(=O)O |  |  | I50 (Aminopeptidase B [10]): Not Active; IC50 (P388 [9]): > 10 µg/mL; inhibition [11]: 13% |
| O=C1CCc2cccc(c2)Oc2ccc(cc2)CCNC(=O)CN1 | inactive |  |  |
| CC(=O)N[C@@H](Cc1ccc(Oc2cc(C[C@H](NC(=O)[C@H](Cc3ccc(O)cc3)NC(=O)OC(C)(C)C)C(=O)O)ccc2OCc2ccccc2)cc1)C(=O)O | inactive |  |  |
| COC(=O)[C@H](Cc1ccc(OCc2ccccc2)c(Oc2ccc(C[C@H](NC(=O)[C@H](CC(N)=O)NC(=O)OC(C)(C)C)C(=O)OC)cc2)c1)NC(=O)OCc1ccccc1 | inactive |  |  |
| COC(=O)[C@H]1Cc2ccc(O)c(c2)Oc2ccc(cc2)C[C@H](N)C(=O)N[C@@H](Cc2ccc(O)cc2)C(=O)N1 |  | 1.15 |  |
| NC(=O)C[C@@H]1NC(=O)[C@@H](N)Cc2ccc(O)c(c2)Oc2ccc(cc2)C[C@@H](C(=O)O)NC1=O |  |  | IC50 (Aminopeptidase B [12]): 43.8 µM; inhibition [13]: 11%; IC50 (P388 [9]): > 10 µg/mL |
| NC(=O)C[C@@H]1NC(=O)CCc2ccc(O)c(c2)Oc2ccc(cc2)CCNC1=O |  | 528 |  |
| O=C1CCc2ccc(O)c(c2)Oc2ccc(cc2)CCNC(=O)CN1 | inactive |  |  |
| COC(=O)[C@@H]1Cc2ccc(cc2)Oc2cc(ccc2O)C[C@H](NC(=O)OCc2ccccc2)C(=O)N[C@@H](CC(N)=O)C(=O)N1 |  | 198 |  |
